# Data published in patent publication US20120270819A1, “USE OF COMPOUNDS WITH SGLT-1/SGLT-2 INHIBITOR ACTIVITY FOR PRODUCING MEDICAMENTS FOR TREATMENT OF BONE DISEASE” (SANOFI, priority 2009, published 2012).
# Test system: female Sprague-Dawley mature and young adult rats
# Test: Ex vivo dual energy X-ray absorptiometry (DXA) of right femur, 28-day oral rat study
# Type: in vivo
# Experimental: The following were evaluated: clinical signs (at least weekly), body weight (weekly), food consumption (weekly), hormones (Days 13 and 27), serum and urinary biochemical markers of bone turnover (Days 13 and 27), serum chemistry (at necropsy), bone densitometry by dual energy X-ray absorptiometry (DXA) and peripheral quantitative computed tomography (pQCT) (Week 2 and 4, as well as ex vivo), macroscopic observations at necropsy, organ weights, histopathology, biomechanical strength testing and femoral length measurements.
# 3.1 Ex Vivo Dual Energy X-Ray Absorptiometry (DXA)
# DXA was used to measure bone mineral density (BMD), bone mineral content (BMC) and area. Single DXA scans were obtained for the excised right femur from all animals euthanized at the end of the treatment period (except three animals due to damaged femoral condyles) as well as two found dead animals. These exclusions had no adverse impact on the overall outcome of the study as sufficient specimens were measured in each groups. Scans were performed with a Hologic Discovery A bone densitometer as per PCS-MTL Standard Operating Procedures.
# [1] = Mature Adults, 10 mg/kg/day (Table 5a)
# [2] = Mature Adults, 10 mg/kg/day, mean
# [3] = Mature Adults, 10 mg/kg/day, mean (Table 5a)
# [4] = Mature Adults, 50 mg/kg/day (Table 5a)
# [5] = Mature Adults, 50 mg/kg/day, mean
# [6] = Mature Adults, 50 mg/kg/day, mean (Table 5a)
# [7] = Young Adults, 10 mg/kg/day (Table 6a)
# [8] = Young Adults, 10 mg/kg/day, mean
# [9] = Young Adults, 10 mg/kg/day, mean (Table 6a)
# [10] = Young Adults, 50 mg/kg/day (Table 6a)
# [11] = Young Adults, 50 mg/kg/day, mean
# [12] = Young Adults, 50 mg/kg/day, mean (Table 6a)
smiles,measurement,setting,value
COc1ccc(Cc2c(OC3OC(CO)C(F)C(O)C3O)n[nH]c2C(F)(F)F)cc1 (stereo not drawn) [Example 5 of formula II],"DXA femur Distal Area, percent difference from Vehicle Control","Mature Adults, 10 mg/kg/day",1.7%
same,"DXA femur Distal BMC, percent difference from Vehicle Control","Mature Adults, 10 mg/kg/day",6.2%
same,"DXA femur Distal BMD, percent difference from Vehicle Control","Mature Adults, 10 mg/kg/day",4.4%
same,"DXA femur Global Area, percent difference from Vehicle Control","Mature Adults, 10 mg/kg/day",1.9%
same,"DXA femur Global BMC, percent difference from Vehicle Control","Mature Adults, 10 mg/kg/day",6.0%
same,"DXA femur Global BMD, percent difference from Vehicle Control","Mature Adults, 10 mg/kg/day",4.0%
same,"DXA femur Mid Area, percent difference from Vehicle Control","Mature Adults, 10 mg/kg/day",3.9%
same,"DXA femur Mid BMC, percent difference from Vehicle Control","Mature Adults, 10 mg/kg/day",6.4%
same,"DXA femur Mid BMD, percent difference from Vehicle Control","Mature Adults, 10 mg/kg/day",2.4%
same,"DXA femur Proximal Area, percent difference from Vehicle Control","Mature Adults, 10 mg/kg/day",2.4%
same,"DXA femur Proximal BMC, percent difference from Vehicle Control","Mature Adults, 10 mg/kg/day",6.1%
same,"DXA femur Proximal BMD, percent difference from Vehicle Control","Mature Adults, 10 mg/kg/day",3.7%
same,"DXA femur Mid Area, percent difference from Vehicle Control",[1],3.86%
same,"DXA femur Mid BMC, percent difference from Vehicle Control",[1],6.45%
same,"DXA femur Mid BMD, percent difference from Vehicle Control",[1],2.35%
same,DXA femur Distal Area,[2],0.41 cm^2
same,DXA femur Distal BMC,[2],0.14 g
same,DXA femur Distal BMD,[2],0.34 g/cm^2
same,DXA femur Global Area,[2],1.91 cm^2
same,DXA femur Global BMC,[2],0.52 g
same,DXA femur Global BMD,[2],0.27 g/cm^2
same,DXA femur Mid Area,[2],0.45 cm^2
same,DXA femur Mid BMC,[2],0.11 g
same,DXA femur Mid BMD,[2],0.24 g/cm^2
same,DXA femur Proximal Area,[2],0.63 cm^2
same,DXA femur Proximal BMC,[2],0.18 g
same,DXA femur Proximal BMD,[2],0.28 g/cm^2
same,DXA femur Mid Area,[3],0.45 cm^2
same,DXA femur Mid BMC,[3],0.11 g
same,DXA femur Mid BMD,[3],0.24 g/cm^2
same,"DXA femur Distal Area, percent difference from Vehicle Control","Mature Adults, 50 mg/kg/day",−0.1%
same,"DXA femur Distal BMC, percent difference from Vehicle Control","Mature Adults, 50 mg/kg/day",8.3%
same,"DXA femur Distal BMD, percent difference from Vehicle Control","Mature Adults, 50 mg/kg/day",8.4%
same,"DXA femur Global Area, percent difference from Vehicle Control","Mature Adults, 50 mg/kg/day",−1.2%
same,"DXA femur Global BMC, percent difference from Vehicle Control","Mature Adults, 50 mg/kg/day",3.7%
same,"DXA femur Global BMD, percent difference from Vehicle Control","Mature Adults, 50 mg/kg/day",5.0%
same,"DXA femur Mid Area, percent difference from Vehicle Control","Mature Adults, 50 mg/kg/day",−1.0%
same,"DXA femur Mid BMC, percent difference from Vehicle Control","Mature Adults, 50 mg/kg/day",1.2%
same,"DXA femur Mid BMD, percent difference from Vehicle Control","Mature Adults, 50 mg/kg/day",2.3%
same,"DXA femur Proximal Area, percent difference from Vehicle Control","Mature Adults, 50 mg/kg/day",0.1%
same,"DXA femur Proximal BMC, percent difference from Vehicle Control","Mature Adults, 50 mg/kg/day",3.0%
same,"DXA femur Proximal BMD, percent difference from Vehicle Control","Mature Adults, 50 mg/kg/day",2.9%
same,"DXA femur Mid Area, percent difference from Vehicle Control",[4],−0.97%
same,"DXA femur Mid BMC, percent difference from Vehicle Control",[4],1.25%
same,"DXA femur Mid BMD, percent difference from Vehicle Control",[4],2.26%
same,DXA femur Distal Area,[5],0.41 cm^2
same,DXA femur Distal BMC,[5],0.14 g
same,DXA femur Distal BMD,[5],0.35 g/cm^2
same,DXA femur Global Area,[5],1.85 cm^2
same,DXA femur Global BMC,[5],0.51 g
same,DXA femur Global BMD,[5],0.27 g/cm^2
same,DXA femur Mid Area,[5],0.43 cm^2
same,DXA femur Mid BMC,[5],0.11 g
same,DXA femur Mid BMD,[5],0.24 g/cm^2
same,DXA femur Proximal Area,[5],0.61 cm^2
same,DXA femur Proximal BMC,[5],0.17 g
same,DXA femur Proximal BMD,[5],0.28 g/cm^2
same,DXA femur Mid Area,[6],0.43 cm^2
same,DXA femur Mid BMC,[6],0.11 g
same,DXA femur Mid BMD,[6],0.24 g/cm^2
same,"DXA femur Distal Area, percent difference from Vehicle Control","Young Adults, 10 mg/kg/day",1.7%
same,"DXA femur Distal BMC, percent difference from Vehicle Control","Young Adults, 10 mg/kg/day",6.4%
same,"DXA femur Distal BMD, percent difference from Vehicle Control","Young Adults, 10 mg/kg/day",4.7%
same,"DXA femur Global Area, percent difference from Vehicle Control","Young Adults, 10 mg/kg/day",−2.5%
same,"DXA femur Global BMC, percent difference from Vehicle Control","Young Adults, 10 mg/kg/day",0.5%
same,"DXA femur Global BMD, percent difference from Vehicle Control","Young Adults, 10 mg/kg/day",3.2%
same,"DXA femur Mid Area, percent difference from Vehicle Control","Young Adults, 10 mg/kg/day",−0.9%
same,"DXA femur Mid BMC, percent difference from Vehicle Control","Young Adults, 10 mg/kg/day",−2.6%
same,"DXA femur Mid BMD, percent difference from Vehicle Control","Young Adults, 10 mg/kg/day",−1.9%
same,"DXA femur Proximal Area, percent difference from Vehicle Control","Young Adults, 10 mg/kg/day",−2.6%
same,"DXA femur Proximal BMC, percent difference from Vehicle Control","Young Adults, 10 mg/kg/day",−0.8%
same,"DXA femur Proximal BMD, percent difference from Vehicle Control","Young Adults, 10 mg/kg/day",1.8%
same,"DXA femur Mid Area, percent difference from Vehicle Control",[7],−0.89%
same,"DXA femur Mid BMC, percent difference from Vehicle Control",[7],−2.61%
same,"DXA femur Mid BMD, percent difference from Vehicle Control",[7],−1.87%
same,DXA femur Distal Area,[8],0.37 cm^2
same,DXA femur Distal BMC,[8],0.10 g
same,DXA femur Distal BMD,[8],0.26 g/cm^2
same,DXA femur Global Area,[8],1.45 cm^2
same,DXA femur Global BMC,[8],0.30 g
same,DXA femur Global BMD,[8],0.21 g/cm^2
same,DXA femur Mid Area,[8],0.39 cm^2
same,DXA femur Mid BMC,[8],0.07 g
same,DXA femur Mid BMD,[8],0.17 g/cm^2
same,DXA femur Proximal Area,[8],0.50 cm^2
same,DXA femur Proximal BMC,[8],0.11 g
same,DXA femur Proximal BMD,[8],0.22 g/cm^2
same,DXA femur Mid Area,[9],0.39 cm^2
same,DXA femur Mid BMC,[9],0.07 g
same,DXA femur Mid BMD,[9],0.17 g/cm^2
same,"DXA femur Distal Area, percent difference from Vehicle Control","Young Adults, 50 mg/kg/day",0.5%
same,"DXA femur Distal BMC, percent difference from Vehicle Control","Young Adults, 50 mg/kg/day",8.4%
same,"DXA femur Distal BMD, percent difference from Vehicle Control","Young Adults, 50 mg/kg/day",7.9%
same,"DXA femur Global Area, percent difference from Vehicle Control","Young Adults, 50 mg/kg/day",−4.7%
same,"DXA femur Global BMC, percent difference from Vehicle Control","Young Adults, 50 mg/kg/day",0.0%
same,"DXA femur Global BMD, percent difference from Vehicle Control","Young Adults, 50 mg/kg/day",4.9%
same,"DXA femur Mid Area, percent difference from Vehicle Control","Young Adults, 50 mg/kg/day",−0.8%
same,"DXA femur Mid BMC, percent difference from Vehicle Control","Young Adults, 50 mg/kg/day",−3.2%
same,"DXA femur Mid BMD, percent difference from Vehicle Control","Young Adults, 50 mg/kg/day",−2.6%
same,"DXA femur Proximal Area, percent difference from Vehicle Control","Young Adults, 50 mg/kg/day",−4.9%
same,"DXA femur Proximal BMC, percent difference from Vehicle Control","Young Adults, 50 mg/kg/day",−4.0%
same,"DXA femur Proximal BMD, percent difference from Vehicle Control","Young Adults, 50 mg/kg/day",1.0%
same,"DXA femur Mid Area, percent difference from Vehicle Control",[10],−0.77%
same,"DXA femur Mid BMC, percent difference from Vehicle Control",[10],−3.16%
same,"DXA femur Mid BMD, percent difference from Vehicle Control",[10],−2.62%
same,DXA femur Distal Area,[11],0.37 cm^2
same,DXA femur Distal BMC,[11],0.10 g
same,DXA femur Distal BMD,[11],0.27 g/cm^2
same,DXA femur Global Area,[11],1.42 cm^2
same,DXA femur Global BMC,[11],0.30 g
same,DXA femur Global BMD,[11],0.21 g/cm^2
same,DXA femur Mid Area,[11],0.39 cm^2
same,DXA femur Mid BMC,[11],0.07 g
same,DXA femur Mid BMD,[11],0.17 g/cm^2
same,DXA femur Proximal Area,[11],0.49 cm^2
same,DXA femur Proximal BMC,[11],0.11 g
same,DXA femur Proximal BMD,[11],0.21 g/cm^2
same,DXA femur Mid Area,[12],0.39 cm^2
same,DXA femur Mid BMC,[12],0.07 g
same,DXA femur Mid BMD,[12],0.17 g/cm^2
